Data taken from ChEMBL document CHEMBL4699533, “Compounds from Toddalia asiatica: Immunosuppressant Activity and Absolute Configurations” (J Nat Prod, 2020).
The source made the active and inactive calls. The rule behind the calls is not given here.

Columns and labels:
[1] = Cytotoxicity against human T-cell assessed reduction in cell viability at 30 uM after 72 hrs; assay type: tissue-based
T cell [2] = assay: (§1) Inhibition of anti-human CD3/CD28/mAbs-stimulated human T-cell proliferation after 72 hrs by CFSE staining based flow cytometric analysis; assay type: functional, tissue-based
[3] = as §1; assay type: functional, tissue-based
T cell [4] = assay: Inhibition of anti-human CD3/CD28/mAbs-stimulated human T-cell proliferation at 30 uM after 72 hrs by CFSE staining based flow cytometric analysis; assay type: functional, tissue-based
[5] = Cytotoxicity against human T-cell assessed reduction in cell viability at 10 uM after 72 hrs; assay type: tissue-based

Structure (SMILES) | inhibition (T cell [4]) | further results
COc1cc2c(cc1OC)-c1ccc3cc4c(cc3c1N(C)C2)OCO4 | – | Activity [1]: Toxic; inhibition (T cell [2]): Dose-dependent effect; IC50 [3]: 6.7 µM
COc1cc2oc(=O)ccc2c(OC)c1C[C@@H](O)C(C)(C)O[C@@H]1O[C@H](CO)[C@@H](O)[C@H](O)[C@H]1O | Active | –
COc1cc2oc(=O)ccc2c(OC)c1CC(O[C@@H]1O[C@H](CO)[C@@H](O)[C@H](O)[C@H]1O)C(C)(C)O (some centres undefined) | Active | –
COc1cc2oc(=O)ccc2c(OC)c1CC(O)C(C)(C)O (centres undefined) | Active | –
O=C(/C=C/c1ccc(O)cc1)NCCc1ccc(O)cc1 | Active | –
COc1cc2oc(=O)ccc2c(OC)c1C[C@H](O)C(C)(C)O[C@@H]1O[C@H](CO)[C@@H](O)[C@H](O)[C@H]1O | Active | –
COc1ccc([C@@H]2CC(=O)c3c(O)cc(O[C@@H]4O[C@H](CO[C@@H]5O[C@@H](C)[C@H](O)[C@@H](O)[C@H]5O)[C@@H](O)[C@H](O)[C@H]4O)cc3O2)cc1O | Active | –
COc1cc2oc(=O)ccc2c(OC)c1C(=O)O | Active | –
COc1cc(O)c(CCC(=O)O)c(OC)c1CC(O)C(C)(C)O (centres undefined) | Active | –
COc1ccc2c(c1OC)CN(C)CCc1cc3c(cc1C(=O)C2)OCO3 | Active | –
COc1cc(C(=O)O)cc(OC)c1O | Active | –
COc1cc2c[n+](C)c3c4cc5c(cc4ccc3c2cc1OC)OCO5.[Cl-] [NITIDINE CHLORIDE] | – | Activity [1]: Toxic; inhibition (T cell [2]): Dose-dependent effect; IC50 [3]: 0.4 µM; Activity [5]: Toxic
COc1cc(/C=C/C(=O)OC[C@H]2O[C@@H](OC[C@@H](Cc3cc(OC)c(O)c(OC)c3)[C@@H](CO)Cc3cc(OC)c(O)c(OC)c3)[C@H](O)[C@@H](O)[C@@H]2O)cc(OC)c1O | Active | –
COc1cc(/C=C/C(=O)OC[C@H]2O[C@@H](OC[C@H]3[C@H](CO)Cc4cc(OC)c(O)c(OC)c4[C@@H]3c3cc(OC)c(O)c(OC)c3)[C@H](O)[C@@H](O)[C@@H]2O)cc(OC)c1O | Active | –
